Patent US6713051B2, “Antiperspirant or deodorant compositions” (Unilever Home & Personal Care USA division of Conopco, Inc., priority 2001, dated 2004)

Experiments:
[1] = tested on: volunteers (volar forearm); assay: Human patch test irritation analysis; type: in vivo; settings: 0.25% incorporated into the formulation; Wilcoxon signed rank test, 5% level
Protocol: Patch tests were performed on mixed panel of 50 volunteers with age ranges between 18 and 55, using a double-blinded protocol with randomised patch sites. Samples (20 mg) were applied to a filter paper that was placed within a Finn™ chamber (0.8 cm internal diameter). The chambers were then attached to the volar forearm using Scanpore™ tape (Norgesplater, Nor.) and left for 47 h.

[2] = tested on: skin organotypic cultures (Epiderm); assay: Viability of skin organotypic cultures (MTT assay); type: cell-based
Protocol: (§1) The cultures were then incubated at 37° C., 5% CO2, and 95% relative humidity (standard cell culture conditions) for 24 h. The culture medium was assayed for the pro-inflammatory cytokine interleukin-6 (IL-6) and after washing to remove the AP formulation, the viability of the culture was determined using the Thiazoyl blue (MTT) assay (Mosmann, T. J. Immunol. Methods 65, p55 (1983). IL-6 was determined using an Immunoassay (Quantikine, R&D systems).
(§2) In this Example, skin organotypic cultures (Epiderm™, MatTek, USA) were treated topically with the above-identified AP formulation and the trans-10-cis-12 conjugated linoleic acid (TC CLA) was introduced into the medium. The cultures were then incubated at 37° C., 5% CO2, and 95% relative humidity (standard cell culture conditions) for 24 h. The culture medium was assayed for the pro-inflammatory cytokine interleukin-6 (IL-6) and after washing to remove the AP formulation, the viability of the culture was determined by the method described in Example 2.
(§3) The cultures were then incubated at 37° C., 5% CO2, and 95% relative humidity (standard cell culture conditions) for 24 hours. The culture medium was assayed for the pro-inflammatory cytokine interleukin-6 (IL-6) and after washing to remove the AP formulation, the viability of the culture was determined using the MTT assay. IL-6 was determined using an ELISA assay (R&D systems).

human PPARα = molecular target: T1, human PPARα (Homo sapiens, UniProt Q07869); assay: PPARα reporter gene assay (firefly luciferase, transiently transfected Cos-7 cells); type: cell-based
T1 construct: The coding region of a human PPARα cDNA was inserted downstream of the CMV promoter; expressed in transfected cells; host or cells: Cos-7 cells, transient transfection (pcDNA3.1(−)-PPARα, pRSV-RXRα, 3xPPRE-TK-luc reporter, pRL-TK)
T1 sequence (Q07869 1-468): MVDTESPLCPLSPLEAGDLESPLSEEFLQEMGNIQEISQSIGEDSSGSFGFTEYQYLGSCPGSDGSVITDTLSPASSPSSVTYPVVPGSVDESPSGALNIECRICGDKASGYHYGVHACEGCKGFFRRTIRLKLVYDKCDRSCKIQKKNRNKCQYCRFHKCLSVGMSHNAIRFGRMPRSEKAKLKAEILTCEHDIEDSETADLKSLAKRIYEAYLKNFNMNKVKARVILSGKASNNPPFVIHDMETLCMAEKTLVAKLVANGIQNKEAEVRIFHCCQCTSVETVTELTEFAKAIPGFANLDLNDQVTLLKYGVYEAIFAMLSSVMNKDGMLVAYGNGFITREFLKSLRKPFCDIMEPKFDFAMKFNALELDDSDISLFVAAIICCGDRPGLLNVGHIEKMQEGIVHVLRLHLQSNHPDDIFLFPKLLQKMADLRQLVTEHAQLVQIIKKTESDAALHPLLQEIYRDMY
T1 sequence (P19793 1-462 partner): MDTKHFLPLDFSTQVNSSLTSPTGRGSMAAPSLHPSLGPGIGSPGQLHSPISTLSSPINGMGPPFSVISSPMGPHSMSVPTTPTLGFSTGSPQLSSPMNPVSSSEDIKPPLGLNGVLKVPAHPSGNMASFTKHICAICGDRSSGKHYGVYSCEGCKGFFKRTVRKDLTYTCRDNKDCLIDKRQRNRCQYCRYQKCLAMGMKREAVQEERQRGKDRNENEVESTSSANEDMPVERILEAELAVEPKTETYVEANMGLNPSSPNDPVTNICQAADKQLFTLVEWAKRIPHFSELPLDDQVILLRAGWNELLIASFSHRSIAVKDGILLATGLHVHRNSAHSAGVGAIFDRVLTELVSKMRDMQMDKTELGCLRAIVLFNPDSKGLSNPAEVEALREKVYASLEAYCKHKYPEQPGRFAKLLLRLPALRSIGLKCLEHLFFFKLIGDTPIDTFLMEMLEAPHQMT

interleukin-6 (IL-6) = assay: Skin organotypic culture analysis: AP-induced IL-6 release into the medium; type: cell-based; settings: 500 μM in medium, AP formulation topical, 24 h; Dunnet's test p<0.05
Protocol: as §1, §2, §3

`CCCCCCCCCCC/C=C\CCCCC(=O)O` [Petroselinic acid, petroselinic acid] was tested, and the “mitigation of irritation induced by the prototype pump spray” value [1] was “significantly mitigated”, the Culture viability ([2]; Example 2: AP formulation alone vs AP formulation and petroselinic acid) was “not significantly different” and the Culture viability ([2]; Example 4: AP treatment alone vs AP and acid treatment) was “not significantly different”. For the same compound, the “Result at (lowest administration level at which super or MS activity was achieved)” value (human PPARα) was 100 μm, the “Result (superior activity class achieved)” value (human PPARα; class reached) was “MS (more superior activity [MS] (100% higher—at least 3 times PPARα activation))” and the “Pass at (lowest tested administration level at which the test material passed)” value (human PPARα; pass = activation greater than oleic acid at 100 μM, commonly >1.57 times vehicle control, 24 h treatment) was 10 μm. The “AP-induced IL-6 release” value (interleukin-6 (IL-6)) was “significantly decrease”.
